Experimental findings from publication PMC5384871 (British journal of haematology, 2017) are described below.

What all share (assay): biochemical kinase assay at […] ATP
Common to all, as to details: read-out: NDI-031301

The target in experiment [1] is T1, JAK3 (Homo sapiens, UniProt P52333).
T1 sequence (P52333 1-1124): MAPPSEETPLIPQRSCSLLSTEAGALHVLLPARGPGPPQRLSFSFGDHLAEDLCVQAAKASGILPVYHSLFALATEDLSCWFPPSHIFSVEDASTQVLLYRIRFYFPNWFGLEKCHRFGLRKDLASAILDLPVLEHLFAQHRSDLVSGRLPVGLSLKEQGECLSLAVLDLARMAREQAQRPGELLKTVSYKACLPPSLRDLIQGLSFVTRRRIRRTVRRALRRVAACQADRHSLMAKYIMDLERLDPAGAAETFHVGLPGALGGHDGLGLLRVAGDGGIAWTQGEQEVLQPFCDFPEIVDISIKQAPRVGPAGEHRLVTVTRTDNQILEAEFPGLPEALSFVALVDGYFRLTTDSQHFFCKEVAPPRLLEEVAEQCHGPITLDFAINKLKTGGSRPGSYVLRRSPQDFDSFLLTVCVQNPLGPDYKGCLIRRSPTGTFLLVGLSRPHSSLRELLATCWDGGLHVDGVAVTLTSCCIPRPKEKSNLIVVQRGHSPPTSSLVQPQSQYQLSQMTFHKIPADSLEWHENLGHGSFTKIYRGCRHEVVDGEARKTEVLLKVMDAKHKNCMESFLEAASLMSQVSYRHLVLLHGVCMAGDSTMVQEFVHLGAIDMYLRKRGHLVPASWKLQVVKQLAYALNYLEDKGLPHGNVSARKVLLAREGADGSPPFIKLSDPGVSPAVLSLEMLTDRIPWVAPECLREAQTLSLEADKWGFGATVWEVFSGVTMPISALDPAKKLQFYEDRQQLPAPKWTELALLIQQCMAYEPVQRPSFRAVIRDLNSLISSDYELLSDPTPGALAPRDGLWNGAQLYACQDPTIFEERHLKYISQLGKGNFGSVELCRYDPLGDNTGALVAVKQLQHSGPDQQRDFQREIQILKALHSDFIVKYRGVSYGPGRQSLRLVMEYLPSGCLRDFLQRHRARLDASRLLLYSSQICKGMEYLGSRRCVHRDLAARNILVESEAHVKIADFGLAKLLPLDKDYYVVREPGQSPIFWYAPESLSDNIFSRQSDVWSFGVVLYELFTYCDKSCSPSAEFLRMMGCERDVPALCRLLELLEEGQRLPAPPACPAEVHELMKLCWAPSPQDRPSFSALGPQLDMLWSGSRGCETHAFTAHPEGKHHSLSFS

The target of experiment [2] is JAK2 (Homo sapiens, UniProt O60674).
Experiment [3] concerns the target JAK1 (Homo sapiens, UniProt P23458).
Experiment [4] deals with TYK2 (Homo sapiens, UniProt P29597).
TYK2, sequence (P29597 whole entry): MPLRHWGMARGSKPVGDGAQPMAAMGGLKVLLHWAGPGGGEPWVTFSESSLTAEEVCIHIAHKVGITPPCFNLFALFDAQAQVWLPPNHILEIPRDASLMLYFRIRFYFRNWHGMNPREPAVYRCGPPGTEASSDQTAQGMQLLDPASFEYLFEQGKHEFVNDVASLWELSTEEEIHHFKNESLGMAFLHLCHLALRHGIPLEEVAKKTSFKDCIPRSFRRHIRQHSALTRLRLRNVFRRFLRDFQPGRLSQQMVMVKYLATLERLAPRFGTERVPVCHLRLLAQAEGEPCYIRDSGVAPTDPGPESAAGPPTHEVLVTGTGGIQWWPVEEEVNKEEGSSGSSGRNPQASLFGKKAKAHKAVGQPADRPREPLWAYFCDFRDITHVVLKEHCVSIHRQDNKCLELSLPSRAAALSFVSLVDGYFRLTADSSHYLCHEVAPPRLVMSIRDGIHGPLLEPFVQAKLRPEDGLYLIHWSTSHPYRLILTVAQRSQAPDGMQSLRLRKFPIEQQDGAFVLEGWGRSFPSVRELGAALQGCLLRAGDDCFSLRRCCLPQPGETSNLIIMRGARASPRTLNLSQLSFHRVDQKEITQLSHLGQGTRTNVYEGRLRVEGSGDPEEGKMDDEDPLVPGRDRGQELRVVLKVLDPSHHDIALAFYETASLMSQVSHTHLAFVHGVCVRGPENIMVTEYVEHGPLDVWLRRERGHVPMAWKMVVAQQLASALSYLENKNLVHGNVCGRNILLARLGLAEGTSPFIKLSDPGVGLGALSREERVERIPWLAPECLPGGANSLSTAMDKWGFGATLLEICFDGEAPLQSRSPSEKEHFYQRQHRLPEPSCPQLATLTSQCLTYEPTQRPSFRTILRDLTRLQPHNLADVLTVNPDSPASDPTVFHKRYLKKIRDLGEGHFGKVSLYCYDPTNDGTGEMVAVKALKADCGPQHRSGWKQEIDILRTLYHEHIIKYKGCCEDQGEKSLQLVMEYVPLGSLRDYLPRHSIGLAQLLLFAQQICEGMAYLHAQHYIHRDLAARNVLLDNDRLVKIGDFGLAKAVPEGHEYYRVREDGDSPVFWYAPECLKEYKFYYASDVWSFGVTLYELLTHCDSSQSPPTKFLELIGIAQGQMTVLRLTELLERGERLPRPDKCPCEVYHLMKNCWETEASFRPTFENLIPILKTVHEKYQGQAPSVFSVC

JAK1, sequence (P23458 whole entry): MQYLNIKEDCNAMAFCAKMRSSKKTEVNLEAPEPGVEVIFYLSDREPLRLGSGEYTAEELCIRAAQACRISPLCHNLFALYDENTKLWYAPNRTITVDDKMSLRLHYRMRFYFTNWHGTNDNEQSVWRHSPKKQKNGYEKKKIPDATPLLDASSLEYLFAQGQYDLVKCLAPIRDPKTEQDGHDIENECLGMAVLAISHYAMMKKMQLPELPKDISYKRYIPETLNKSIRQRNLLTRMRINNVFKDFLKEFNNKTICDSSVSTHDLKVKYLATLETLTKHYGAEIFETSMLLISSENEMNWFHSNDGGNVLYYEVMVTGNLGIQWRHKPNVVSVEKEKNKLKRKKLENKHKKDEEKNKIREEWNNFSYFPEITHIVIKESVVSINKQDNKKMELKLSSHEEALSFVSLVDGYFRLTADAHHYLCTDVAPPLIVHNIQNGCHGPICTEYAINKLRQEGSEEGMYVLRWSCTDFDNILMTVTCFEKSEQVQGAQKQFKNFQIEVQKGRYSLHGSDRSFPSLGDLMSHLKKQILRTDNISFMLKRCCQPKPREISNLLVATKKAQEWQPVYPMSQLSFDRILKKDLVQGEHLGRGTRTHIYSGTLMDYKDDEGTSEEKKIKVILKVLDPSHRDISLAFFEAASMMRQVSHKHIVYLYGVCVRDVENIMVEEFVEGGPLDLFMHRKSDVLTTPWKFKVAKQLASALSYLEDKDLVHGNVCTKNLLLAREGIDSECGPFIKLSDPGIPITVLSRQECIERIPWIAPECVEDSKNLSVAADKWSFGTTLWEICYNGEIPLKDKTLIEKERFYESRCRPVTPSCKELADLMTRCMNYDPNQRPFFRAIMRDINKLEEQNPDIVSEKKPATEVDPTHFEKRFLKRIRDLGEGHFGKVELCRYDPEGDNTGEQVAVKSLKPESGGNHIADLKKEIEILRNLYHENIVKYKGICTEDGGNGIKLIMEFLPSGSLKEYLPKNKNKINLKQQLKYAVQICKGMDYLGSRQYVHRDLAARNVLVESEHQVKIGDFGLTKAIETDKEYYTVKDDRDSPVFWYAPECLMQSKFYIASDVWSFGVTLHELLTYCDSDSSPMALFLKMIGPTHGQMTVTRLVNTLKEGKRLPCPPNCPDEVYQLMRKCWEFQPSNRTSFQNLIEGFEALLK
JAK2, sequence (O60674 whole entry): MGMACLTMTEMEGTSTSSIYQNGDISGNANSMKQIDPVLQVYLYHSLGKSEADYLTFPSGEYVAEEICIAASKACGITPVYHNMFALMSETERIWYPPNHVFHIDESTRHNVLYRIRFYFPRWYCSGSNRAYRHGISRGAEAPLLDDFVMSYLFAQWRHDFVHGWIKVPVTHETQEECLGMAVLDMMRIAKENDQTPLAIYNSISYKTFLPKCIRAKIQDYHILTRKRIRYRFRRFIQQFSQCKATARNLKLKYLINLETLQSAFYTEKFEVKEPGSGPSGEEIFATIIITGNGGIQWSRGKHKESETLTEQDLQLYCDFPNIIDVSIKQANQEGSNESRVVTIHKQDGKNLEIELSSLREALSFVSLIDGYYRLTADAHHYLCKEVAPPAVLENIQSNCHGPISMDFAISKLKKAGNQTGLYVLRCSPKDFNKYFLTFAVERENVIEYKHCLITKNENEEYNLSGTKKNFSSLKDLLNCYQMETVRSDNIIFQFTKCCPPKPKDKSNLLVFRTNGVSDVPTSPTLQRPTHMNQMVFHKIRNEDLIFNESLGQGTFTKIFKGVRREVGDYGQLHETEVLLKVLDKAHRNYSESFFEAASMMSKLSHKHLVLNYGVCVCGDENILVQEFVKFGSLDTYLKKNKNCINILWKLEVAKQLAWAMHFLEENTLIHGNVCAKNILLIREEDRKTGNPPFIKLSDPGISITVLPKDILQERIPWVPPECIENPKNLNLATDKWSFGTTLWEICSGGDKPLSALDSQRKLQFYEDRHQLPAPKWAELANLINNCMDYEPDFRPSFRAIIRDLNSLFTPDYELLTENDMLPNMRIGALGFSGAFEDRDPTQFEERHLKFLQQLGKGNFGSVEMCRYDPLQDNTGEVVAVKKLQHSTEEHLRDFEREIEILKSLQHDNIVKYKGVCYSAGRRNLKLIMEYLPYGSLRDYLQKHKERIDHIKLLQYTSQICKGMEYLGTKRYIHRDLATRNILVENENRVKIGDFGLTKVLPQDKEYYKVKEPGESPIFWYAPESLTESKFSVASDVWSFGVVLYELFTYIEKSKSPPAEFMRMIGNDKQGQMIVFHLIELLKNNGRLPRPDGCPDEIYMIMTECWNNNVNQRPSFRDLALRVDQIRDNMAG

For the substance NDI-031301, the Ki in experiment [1] is 2480 nM; in experiment [2], 2750 nM; in experiment [3], 2200 nM; in experiment [4] it was 130 nM.
